For orientation: IC50 means the concentration needed to halve the response being measured.

Where two headings read alike, the source gives them in different places.

The record followed here is patent publication US20230131899A1, “INHIBITORS OF MICROBIALLY INDUCED AMYLOID” (Axial Therapeutics, Inc., priority 2020, published 2023).

Assay [1] relates to CsgA gene expression (csgBAC promoter-GFP reporter) in E. coli UTI89. The assay is described as follows: In vitro live cell fluorescent reporter assay of CsgA transcription (Reporter Assay). The conditions noted are these: Escherichia coli. The assay is classed as cell-based. In outline:
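Compounds at 0.14–100 μM (1% DMSO final) incubated 20 h at 27 °C in YESCA broth with UTI89 carrying a single-copy GFP reporter under the csgBAC intergenic promoter region, inoculum OD600 0.003. Fluorescence normalized to vehicle wells gave IC50 and 50%-of-vehicle concentration; OD600 reduction >10% flagged growth impact.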
On the technique in general: A reporter such as luciferase makes a cellular process visible.

A further assay has as its target T1, E. coli CsgA (Escherichia coli, UniProt P28307).
T1 construct: made in house; host or cells: E. coli NEB 3016 slyD::kan, pET11d
The assay can be described thus: In vitro ThioflavinT assay of CsgA aggregation (CsgA ThT Assay). The conditions noted are these: for remaining activity at 25 µM: compound 25 μM; for remaining activity at 100 µM: compound 100 μM. The assay is classed as biochemical. The method, boiled down:
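Purified C-terminal His-tagged CsgA, monomerised by desalting and 30-kDa filtration, at 2-20 μM with 20-40 μM ThT in 50 mM potassium phosphate pH 7.3, 1% DMSO, compounds 3.125-200 uM; room temperature, fluorescence (ex 438/em 495 nm) read every 15 min. Background-subtracted signal expressed as percent inhibition versus vehicle at 6-6.5 or 8-9 h, or as percent control AUC.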

Setting [2] is: read-out: Reporter Assay Abs IC50 (μM), median Abs IC50 in the CsgA reporter assay, N/A = maximum expression reduction is <50% of control.
Setting [3] is: read-out: Reporter Assay Abs IC50, activity range, class symbol.
Setting [4] is: read-out: CsgA ThT Assay (2 μM CsgA) % Control Bmax 25 μM, activity range, class symbol, CsgA 2 μM, white plates.
Where [5] appears, read: read-out: CsgA ThT Assay (2 μM CsgA) % Control Bmax 25 μM, mean Bmax as percentage of DMSO control, CsgA 2 μM, white plates.
The mark [6] stands for this setting: read-out: CsgA ThT Assay (2 μM CsgA) % Control Bmax 100 μM, activity range, class symbol, CsgA 2 μM, white plates.
[7] abbreviates: read-out: CsgA ThT Assay (2 μM CsgA) % Control Bmax 100 μM, mean Bmax as percentage of DMSO control, CsgA 2 μM, white plates.
The mark [8] stands for this setting: read-out: Reporter Assay Abs IC50 (activity range), median Abs IC50 in the CsgA reporter assay, class symbol.
The mark [9] stands for this setting: read-out: CsgA ThT Assay (10 μM CsgA) % Control AUC at 1005 minutes, 25 μM (activity range), CsgA 10 μM, black plates, 1005 minutes, class symbol.
The mark [10] stands for this setting: read-out: CsgA ThT Assay (10 μM CsgA) % Control AUC at 1005 minutes, 25 μM, mean AUC as % of DMSO control, CsgA 10 μM, black plates, 1005 minutes.
Setting [11] is: read-out: CsgA ThT Assay (10 μM CsgA) % Control AUC at 1005 minutes, 100 μM (activity range), CsgA 10 μM, black plates, 1005 minutes, class symbol.
The mark [12] stands for this setting: read-out: CsgA ThT Assay (10 μM CsgA) % Control AUC at 1005 minutes, 100 μM, mean AUC as % of DMSO control, CsgA 10 μM, black plates, 1005 minutes.

T1 sequence (P28307 23-151): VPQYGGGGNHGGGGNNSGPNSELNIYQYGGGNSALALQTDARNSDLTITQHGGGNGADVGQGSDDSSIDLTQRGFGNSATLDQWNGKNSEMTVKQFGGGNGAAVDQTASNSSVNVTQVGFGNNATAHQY

With `O=C(O)C1CN(Cc2ccccc2)c2c(-c3ccc(Br)cc3)c(Cc3cccc4ccccc34)c(Cl)c(=O)n21` (stereo not drawn) [Compound 201, 1-benzyl-8-(4-bromophenyl)-6-chloro-7-(naphthalen-1-ylmethyl)-5-oxo-1,2,3,5-tetrahydroimidazo[1,2-a]pyridine-3-carboxylic acid], the IC50 was 1.8 µM in assay [1] (setting [2]) and 1.3 to 4.5 µM in assay [1] (setting [3]). Further, the remaining activity at 25 µM at E. coli CsgA (setting [4]) was more than 60%; at E. coli CsgA (setting [5]), 70%. Besides, the remaining activity at 100 µM on E. coli CsgA (setting [6]) was 31 to 60%; on E. coli CsgA (setting [7]), 35%.

As for `O=C(O)c1c(Cc2ccccc2)sc2c(-c3cccc(C(F)(F)F)c3)c(Cc3cccc4ccccc34)cc(=O)n12` [Compound 060, 2-benzyl-7-(naphthalen-1-ylmethyl)-5-oxo-8-(3-(trifluoromethyl)phenyl)-5H-thiazolo[3,2-a]pyridine-3-carboxylic acid], the values for the IC50 in assay [1] (setting [8]) and in assay [1] (setting [2]) were 1.3 to 4.5 µM and 1.4 µM, respectively. In addition, the remaining activity at 25 µM was more than 60% at E. coli CsgA (setting [9]) and 91% on E. coli CsgA (setting [10]). Moreover, the remaining activity at 100 µM on E. coli CsgA (setting [11]) was more than 60%; at E. coli CsgA (setting [12]), 98%.

Turning to `O=C(O)C1CNc2c(-c3cccc(C(F)(F)F)c3)c(C(F)(F)c3cccc4ccccc34)cc(=O)n21` (stereo not drawn) [Compound 134, 7-(difluoro(naphthalen-1-yl)methyl)-5-oxo-8-(3-(trifluoromethyl)phenyl)-1,2,3,5-tetrahydroimidazo[1,2-a]pyridine-3-carboxylic acid], the values for the IC50 in assay [1] (setting [2]) and in assay [1] (setting [3]) were 15.6 µM and more than 10 µM, respectively. In addition, the remaining activity at 25 µM is more than 60% on E. coli CsgA (setting [4]) and 92% on E. coli CsgA (setting [5]). Besides, the remaining activity at 100 µM on E. coli CsgA (setting [6]) was more than 60%; on E. coli CsgA (setting [7]), 66%.

Take `Nc1c(Cc2cccc3ccccc23)c(-c2cccc(C(F)(F)F)c2)c2n(c1=O)C(C(=O)O)CN(C[C@@H](O)CO)S2(=O)=O` (stereo partly drawn) [Compound 096, 7-amino-2-((R)-2,3-dihydroxypropyl)-8-(naphthalen-1-ylmethyl)-6-oxo-9-(3-(trifluoromethyl)phenyl)-3,4-dihydro-2H,6H-pyrido[1,2-e][1,2,5]thiadiazine-4-carboxylic acid 1,1-dioxide]: the IC50 in assay [1] (setting [8]) is more than 10 µM; in assay [1] (setting [2]), 22.9 µM. For the same compound, the remaining activity at 25 µM on E. coli CsgA (setting [9]) was more than 60%; on E. coli CsgA (setting [10]), 79%. In addition, the remaining activity at 100 µM was more than 60% on E. coli CsgA (setting [11]) and 71% on E. coli CsgA (setting [12]).

For the compound `CC(C)CN1CC(C(=O)O)n2c(c(-c3cccc(C(F)(F)F)c3)c(Cc3cccc4ccccc34)c(NC3CCCC3)c2=O)S1(=O)=O` (stereo not drawn) [Compound 145, 7-(cyclopentylamino)-2-isobutyl-8-(naphthalen-1-ylmethyl)-6-oxo-9-(3-(trifluoromethyl)phenyl)-3,4-dihydro-2H,6H-pyrido[1,2-e][1,2,5]thiadiazine-4-carboxylic acid 1,1-dioxide], the figures for the IC50 in assay [1] (setting [2]) and in assay [1] (setting [3]) were 2 µM and 1.3 to 4.5 µM, respectively. Moreover, the remaining activity at 25 µM on E. coli CsgA (setting [4]) is more than 60%; at E. coli CsgA (setting [5]), 76%. Moreover, the remaining activity at 100 µM on E. coli CsgA (setting [6]) was 31 to 60%; on E. coli CsgA (setting [7]) it was 39%.

For the compound `CN(C)Cc1c(Cc2cccc3ccccc23)c(-c2cccc(C(F)(F)F)c2)c2n(c1=O)C(C(=O)O)CN(C)S2(=O)=O` (stereo not drawn) [Compound 108, 7-((dimethylamino)methyl)-2-methyl-8-(naphthalen-1-ylmethyl)-6-oxo-9-(3-(trifluoromethyl)phenyl)-3,4-dihydro-2H,6H-pyrido[1,2-e][1,2,5]thiadiazine-4-carboxylic acid 1,1-dioxide], the figures for the IC50 in assay [1] (setting [8]) and in assay [1] (setting [2]) were less than 1.3 µM and 0.6 µM, respectively. The remaining activity at 25 µM is 11 to 31% at E. coli CsgA (setting [9]) and 14% at E. coli CsgA (setting [10]). For the same compound, the remaining activity at 100 µM at E. coli CsgA (setting [11]) was 11 to 31%; on E. coli CsgA (setting [12]), 25%.

`CCCc1c(Cc2cccc3ccccc23)c(-c2cccc(C(F)(F)F)c2)c2n(c1=O)C(C(=O)O)CN(C)S2(=O)=O` (stereo not drawn) [Compound 090, 2-methyl-8-(naphthalen-1-ylmethyl)-6-oxo-7-propyl-9-(3-(trifluoromethyl)phenyl)-3,4-dihydro-2H,6H-pyrido[1,2-e][1,2,5]thiadiazine-4-carboxylic acid 1,1-dioxide]: the values for the IC50 in assay [1] (setting [8]) and in assay [1] (setting [2]) were 4.6 to 10 µM and 5.9 µM, respectively. Besides, the results for the remaining activity at 25 µM on E. coli CsgA (setting [9]) and at E. coli CsgA (setting [10]) were 31 to 60% and 54%, respectively. Moreover, the values for the remaining activity at 100 µM on E. coli CsgA (setting [11]) and on E. coli CsgA (setting [12]) were 11 to 31% and 30%, respectively.

`Nc1c(Cc2cccc3ccccc23)c(-c2cccc(C(F)(F)F)c2)c2n(c1=O)C(C(=O)O)CO2` (stereo not drawn) [Compound 069, 6-amino-7-(naphthalen-1-ylmethyl)-5-oxo-8-(3-(trifluoromethyl)phenyl)-2,3-dihydro-5H-oxazolo[3,2-a]pyridine-3-carboxylic acid]: the IC50 in assay [1] (setting [8]) is 4.6 to 10 µM; in assay [1] (setting [2]) it was 5.7 µM. In addition, the results for the remaining activity at 25 µM on E. coli CsgA (setting [9]) and on E. coli CsgA (setting [10]) were 31 to 60% and 58%, respectively. The values for the remaining activity at 100 µM on E. coli CsgA (setting [11]) and on E. coli CsgA (setting [12]) were 11 to 31% and 14%, respectively.

For `CCCCN1CC(C(=O)O)n2c(c(-c3cccc(C(F)(F)F)c3)c(Cc3cccc4ccccc34)c(N)c2=O)S1(=O)=O` (stereo not drawn) [Compound 093, 7-amino-2-butyl-8-(naphthalen-1-ylmethyl)-6-oxo-9-(3-(trifluoromethyl)phenyl)-3,4-dihydro-2H,6H-pyrido[1,2-e][1,2,5]thiadiazine-4-carboxylic acid 1,1-dioxide], the figures for the IC50 in assay [1] (setting [8]) and in assay [1] (setting [2]) were 1.3 to 4.5 µM and 3.6 µM, respectively. Further, the remaining activity at 25 µM on E. coli CsgA (setting [9]) was 31 to 60%; at E. coli CsgA (setting [10]), 49%. Moreover, the remaining activity at 100 µM was 31 to 60% at E. coli CsgA (setting [11]) and 37% at E. coli CsgA (setting [12]).

`O=C(O)CC1CS(=O)(=O)c2c(-c3cccc(C(F)(F)F)c3)c(Cc3cccc4ccccc34)cc(=O)n21` (stereo not drawn) [Compound 130, 2-(7-(naphthalen-1-ylmethyl)-1,1-dioxido-5-oxo-8-(3-(trifluoromethyl)phenyl)-2,3-dihydro-5H-thiazolo[3,2-a]pyridin-3-yl)acetic acid]: the IC50 in assay [1] (setting [8]) is more than 10 µM; in assay [1] (setting [2]), 14.8 µM. Further, the figures for the remaining activity at 25 µM at E. coli CsgA (setting [9]) and at E. coli CsgA (setting [10]) were 31 to 60% and 49%, respectively. Besides, the values for the remaining activity at 100 µM at E. coli CsgA (setting [11]) and on E. coli CsgA (setting [12]) were 11 to 31% and 15%, respectively.

As to `O=C(c1nc(=O)n2c(c1-c1cccc(C(F)(F)F)c1)SCC2C(=O)O)c1cccc2ccccc12` (stereo not drawn) [Compound 055, 7-(1-naphthoyl)-5-oxo-8-(3-(trifluoromethyl)phenyl)-2,3-dihydro-5H-thiazolo[3,2-c]pyrimidine-3-carboxylic acid], the IC50 was more than 10 µM in assay [1] (setting [8]) and 11 µM in assay [1] (setting [2]). Besides, the remaining activity at 25 µM on E. coli CsgA (setting [9]) is more than 60%; at E. coli CsgA (setting [10]), 73%. The remaining activity at 100 µM on E. coli CsgA (setting [11]) is 11 to 31%; on E. coli CsgA (setting [12]), 17%.

`NC(=O)c1c(Cc2cccc3ccccc23)c(-c2cccc(C(F)(F)F)c2)c2n(c1=O)C(C(=O)O)CN(CCCCO)S2(=O)=O` (stereo not drawn) [Compound 183, 7-carbamoyl-2-(4-hydroxybutyl)-8-(naphthalen-1-ylmethyl)-6-oxo-9-(3-(trifluoromethyl)phenyl)-3,4-dihydro-2H,6H-pyrido[1,2-e][1,2,5]thiadiazine-4-carboxylic acid 1,1-dioxide]: the IC50 in assay [1] (setting [2]) was 0.8 µM; in assay [1] (setting [3]), less than 1.3 µM. For the same compound, the values for the remaining activity at 25 µM on E. coli CsgA (setting [4]) and at E. coli CsgA (setting [5]) were 31 to 60% and 32%, respectively. Moreover, the remaining activity at 100 µM on E. coli CsgA (setting [6]) is 11 to 31%; on E. coli CsgA (setting [7]), 26%.

As for `CCc1c(Cc2cccc3ccccc23)c(-c2cccc(C(F)(F)F)c2)c2n(c1=O)C(C(=O)O)CN(C(C)C)S2(=O)=O` (stereo not drawn) [Compound 115, 7-ethyl-2-isopropyl-8-(naphthalen-1-ylmethyl)-6-oxo-9-(3-(trifluoromethyl)phenyl)-3,4-dihydro-2H,6H-pyrido[1,2-e][1,2,5]thiadiazine-4-carboxylic acid 1,1-dioxide], the IC50 was 4.6 to 10 µM in assay [1] (setting [8]) and 7.2 µM in assay [1] (setting [2]). Also, the remaining activity at 25 µM at E. coli CsgA (setting [9]) is 31 to 60%; at E. coli CsgA (setting [10]) it was 35%. In addition, the values for the remaining activity at 100 µM at E. coli CsgA (setting [11]) and on E. coli CsgA (setting [12]) were 11 to 31% and 23%, respectively.
